Results as given in paper PMC8044163, “Vitamin D and lumisterol derivatives can act on liver X receptors (LXRs)” (Scientific Reports, 2021).
Like-named read-outs stand apart in the source and are kept apart here.

Tests used:
[1] = system: ABCA1; assay: qPCR of ABCA1 in HaCaT keratinocytes; format: cell-based, human; conditions: 10^–7 M
Procedure: HaCaT keratinocytes were cultured as described previously. For RNA isolation the cells were maintained in TPP tissue culture petri dishes (Ø60 mm, 22.1 cm^2) in DMEM containing 10% cFBC to reach semi-confluence and then exposed to 10^–7 M compounds or a corresponding concentration of ethanol solvent.
RNA isolated from either fibroblasts, HaCaT cells or brain was submitted for cDNA synthesis (High Capacity cDNA Reverse Transcription Kit with RNase Inhibitor, Applied Biosystems) following the manufacturers’ protocols. RT-PCR was carried out using Cyber green, in triplicates; as previously described. Approximately, 750 ng of cDNA was used for PCR reactions. GAPDH and CIC-B were used as internal controls. Primer sequences are listed in Supplementary Table 27. Data were analyzed using GraphPad Prism statistical software one way ANOVA or t-test, where appropriate; *p < 0.05; **p < 0.01; ***p < 0.001.

[2] = system: ABCA1 gene; conditions: HaCaT cells, 10^–7 M, microarray GSE117351 ref 44, cited from earlier work
[3] = system: LXR-response element (LXRE)-driven reporter in CHO cells; assay: LXRE-driven luciferase reporter assay in CHO cells; format: cell-based; conditions: 10^–7 M, CHO and HaCaT cells (Fig. 4C)
Procedure: The effects of vitamin D3 and L3 hydroxyderivatives were tested on the LXRE transcriptional activity using pGreenFire1-LXRE-in-ApoE Lentivirus (System Biosciences, Palo Alto, CA). This plasmid was transduced in CHO and HaCaT cells following the manufacture’s protocol and the cells used as a stable LXRE expressed tool. Briefly, the virus was transduced into the cells using TransDux MAX Lentivirus Transduction Enhancer (System Biosciences, Palo Alto, CA) and screened to select the transduced cells using puromycin. The transduced cells were treated with the compounds for 24 h in media containing 5% cFBS (charcoal-treated fetal bovine serum) and the luminescence was read by ONE-Glo Luciferase Assay System (Promega, Madison, WI) using Cytation 5 (BioTek, Winooski, VT).

[4] = biological target: T1, LXRα (Homo sapiens, UniProt Q13133); assay: Ligand induced translocation of LXRα to the nucleus, immunofluorescence in HaCaT; format: cell-based; conditions: 10^−7 M, 24 h
T1 construct: endogenous in cells; host or cells: HaCaT keratinocytes
T1 sequence (Q13133 1-447): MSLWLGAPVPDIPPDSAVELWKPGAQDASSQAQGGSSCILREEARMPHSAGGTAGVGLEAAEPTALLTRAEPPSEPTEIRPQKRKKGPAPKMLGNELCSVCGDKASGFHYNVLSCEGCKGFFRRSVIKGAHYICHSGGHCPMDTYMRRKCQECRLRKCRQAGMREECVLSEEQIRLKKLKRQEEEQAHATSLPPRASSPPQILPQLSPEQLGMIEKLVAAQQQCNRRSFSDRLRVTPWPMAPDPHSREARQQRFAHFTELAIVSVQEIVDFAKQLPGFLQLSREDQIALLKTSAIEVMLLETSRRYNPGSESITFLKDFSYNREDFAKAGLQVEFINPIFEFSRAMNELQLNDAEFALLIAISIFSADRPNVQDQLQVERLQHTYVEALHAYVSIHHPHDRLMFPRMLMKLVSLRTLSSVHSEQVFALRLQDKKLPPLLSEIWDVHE
Procedure: HaCaT cells were plated in DMEM plus 5% cFBS either on a sterile glass cover slip placed in a well of a 6-well plates for immunofluorescence (IF) assays or TPP Petri dishes for image-stream flow cytometry, and treated with 10^–7 M D3- or L3-hydroxyderivatives or 0.1% ethanol (vehicle) as a negative control was added to each well, and the cells were incubated for 12 or 24 h at 37 °C with 5% CO2. For IF the cells were fixed in 4% paraformaldehyde for 15 min, incubated in 0.5% Triton X-100 in phosphate-buffered saline (PBS) for 5 min, and washed 3 times in PBS. After blocking with 2% bovine serum albumin (BSA) in PBS for 1 h at room temperature, the cells were treated with an anti-LXRα antibody (Novus Biologicals, LLC, Centennial, CO) at 1:200 in PBS supplemented with 2% BSA overnight in 4 °C. After washing the slides were incubated with a mouse anti-rabbit IgG-FITC (Santa Cruz Biotechnology, Inc, Dallas, TX) at 1:200 dilution for 1.5 h at 37 °C. After washing the slides were mounted using propidium iodide (PI) (Vector Labs, Burlingame, California) as a nuclear counterstain. The slides were examined using a KEYENCE America BZ-X710 Fluorescence Microscope (Itasca, IL). The images were subsequently analyzed using the JACoP plugin for colocalization analysis with ImageJ[74]. Five separate high-power field (40×) images were converted to grayscale and analyzed for each condition. Manders’ coefficient (M1), calculated using a preset threshold, was used to quantify the degree of colocalization between PI and LXRα with 0 representing no colocalization, and 1 representing perfect colocalization.

[5] = biological target: T2, VDR (Homo sapiens, UniProt P11473); assay: Translocation of VDR to the nucleus, imaging flow cytometry in HaCaT; format: cell-based; conditions: 10^–7 M, 12 h
T2 construct: endogenous in cells; host or cells: HaCaT keratinocytes
T2 sequence (P11473 1-427): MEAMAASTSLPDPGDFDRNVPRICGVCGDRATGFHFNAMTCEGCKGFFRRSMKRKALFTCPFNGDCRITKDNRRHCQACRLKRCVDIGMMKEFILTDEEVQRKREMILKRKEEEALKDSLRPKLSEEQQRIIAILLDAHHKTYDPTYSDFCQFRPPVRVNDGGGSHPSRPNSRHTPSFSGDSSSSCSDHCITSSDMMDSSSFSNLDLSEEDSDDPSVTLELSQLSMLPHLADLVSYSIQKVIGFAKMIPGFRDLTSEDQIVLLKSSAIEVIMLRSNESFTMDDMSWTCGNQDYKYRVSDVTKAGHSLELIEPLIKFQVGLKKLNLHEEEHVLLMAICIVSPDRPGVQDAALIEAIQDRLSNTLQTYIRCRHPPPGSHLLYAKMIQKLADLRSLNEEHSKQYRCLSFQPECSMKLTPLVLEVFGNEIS

| translocation of LXRα to the nucleus (immunofluorescence, Manders' coefficient) [4] | translocation of VDR from the cytoplasm to the nucleus [5] | Compound | ABCA1 RNA expression (qPCR) [1] | ABCA1 expression, stimulation ([2]; 6 h) [times] | ABCA1 expression, stimulation ([2]; 24 h) [fold] | LXRE luciferase (transcriptional) activity [3] |
| --- | --- | --- | --- | --- | --- | --- |
| induced translocation |  | C=C1/C(=C\C=C2/CCC[C@]3(C)[C@@H]([C@H](C)CCCC(C)(C)O)CC[C@@H]23)C[C@@H](O)C[C@@H]1O [1,25(OH)2D3, reference compound] | stimulation | 2.4 | 2.4 | strongest stimulatory effects |
|  |  | C=C1CCC(O)CC1=CC=C1CCCC2(C)C1CCC2C(C)(O)CC(O)CC(C)C (stereo not drawn) [20,23(OH)2D3] |  | 2.8 | 2.3 |  |
| induced translocation | increased translocation | C=C1CC[C@H](O)C/C1=C/C=C1\CCC[C@@]2(C)[C@H]1CC[C@@H]2[C@@](C)(O)CCCC(C)C [20(OH)D3] | stimulation |  |  |  |
|  | increased translocation | C=C1C(=CC=C2CCCC3(C)C2CCC3C(C)(O)CC(O)CC(C)C)CC(O)CC1O (stereo not drawn) [1,20,23(OH)3D3] |  |  |  | strongest stimulatory effects |
